# According to US7345042B2, “MCH antagonists for the treatment of obesity” (Schering Corporation, priority 2003, dated 2008):
# Biological target: T1, MCH receptor (Homo sapiens, UniProt Q99705)
# T1 construct: expressed in transfected cells; host or cells: CHO cells
# Assay: MCH Receptor Binding Assay ([125I]-MCH SPA, membranes from CHO cells expressing the MCH receptor)
# Settings: CHO cell membranes, [125I]-MCH, read-out: MCH Receptor Activity (Ki rating)
# Method: MCH Receptor Binding Assay:
# Membranes from CHO cells expressing the MCH receptor were prepared by lysing cells with 5 mM HEPES for 15 min at 4 C. Cell lysates were centrifuged ([…], 15 min) and the pellet was resuspended in 5 mM HEPES. For each 96-well plate (Microlite, Dynex Technologies), 1 mg of cell membranes were incubated with 10 mg of wheat germ agglutinin SPA beads (Amersham) for 5 min at 4 C in a volume of 10 ml of binding buffer (25 mM HEPES, 10 mM MGCl2, 10 mM NaCl, 5 mM MnCl2, 0.1% BSA). The membrane/bead mixture was centrifuged (1500×g, 3.5 min), the supernatant was aspirated, and the pellet was resuspended in 10 ml binding buffer. The centrifugation, aspiration and resuspension were then repeated. The membrane/bead mixture (100 μl) was then added to 96-well plates containing 50 μl of 500 pM [^125I]-MCH (NEN) and […] of the appropriate concentration of compound (4× the desired final concentration). Nonspecific binding was determined by including 1 μM MCH in the binding reaction. The binding reaction was incubated at room temperature for 2 h. Plates were then analyzed in a TOPCOUNT microplate scintillation counter (Packard). Data was analyzed and Ki values were determined using GraphPad Prim.
# T1 sequence (Q99705 whole entry): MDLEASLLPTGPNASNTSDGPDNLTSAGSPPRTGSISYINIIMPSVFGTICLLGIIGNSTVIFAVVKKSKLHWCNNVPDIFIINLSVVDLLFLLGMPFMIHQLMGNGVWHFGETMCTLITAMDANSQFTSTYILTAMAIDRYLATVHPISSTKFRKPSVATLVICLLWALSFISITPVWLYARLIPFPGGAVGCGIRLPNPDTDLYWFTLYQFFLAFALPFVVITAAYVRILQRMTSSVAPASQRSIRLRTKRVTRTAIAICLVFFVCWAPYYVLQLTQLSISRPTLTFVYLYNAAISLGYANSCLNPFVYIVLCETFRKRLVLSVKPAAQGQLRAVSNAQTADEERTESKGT
row,SMILES,Ki
1,CCOc1ccsc1C(=O)N1CCC(N2CCN([C@@H](C)c3ccc(-c4ccc(Cl)s4)cc3)[C@H](C)C2)CC1 [Example 10],> 15 nM
2,CCOc1ccsc1C(=O)N1CCC(N2CCN([C@@H](C)c3ccc(-c4cc(Cl)cc(Cl)c4)cc3)[C@H](C)C2)CC1 [Example 2],10 to 15 nM
3,C[C@@H]1CN(C2CCN(C(=O)c3sccc3OCC3CC3)CC2)C[C@@H](C)N1Cc1ccc(-c2cc(Cl)cc(Cl)c2)cc1 [Example 11],> 15 nM
4,CCOc1ccsc1C(=O)N1CCC(N2CCN([C@@H](C)c3ccc(-c4cc(Cl)cc(Cl)c4)cc3)[C@H](C)C2)CC1C (stereo partly drawn) [Example 17],> 15 nM
5,CCCCOc1ccsc1C(=O)N1CCC(N2CCN([C@@H](C)c3ccc(-c4cc(Cl)cc(Cl)c4)cc3)[C@H](C)C2)CC1 [Example 7],10 to 15 nM
6,CCCOc1ccsc1C(=O)N1CCC(N2CCN([C@@H](C)c3ccc(CCc4ccc(Cl)cc4)cc3)[C@H](C)C2)CC1 [Example 4],10 to 15 nM
7,CCCOc1ccsc1C(=O)N1CCC(N2CCN([C@@H](C)c3ccc(CCc4ccc5c(c4)OCO5)cc3)[C@H](C)C2)CC1 [Example 1],10 to 15 nM
8,CCOc1ccsc1C(=O)N1CCC(N2C[C@@H](C)N([C@@H](C)c3ccc(-c4cc(Cl)cc(Cl)c4)cc3)[C@H](C)C2)CC1 [Example 18],10 to 15 nM
9,CCCOc1ccsc1C(=O)N1CCC(N2CCN([C@@H](C)c3ccc(-c4ccc(F)c(Cl)c4)cc3)[C@H](C)C2)CC1 [Example 9],10 to 15 nM
10,CCCCOc1ccsc1C(=O)N1CCC(N2CCN([C@@H](C)c3ccc(-c4cc(Cl)cc(Cl)c4)cc3)[C@H](C)C2)CC1 [Example 8],6 to 10 nM
11,CCCOc1ccsc1C(=O)N1CCC(N2CCN([C@@H](C)c3ccc(-c4cc(Cl)cc(Cl)c4)cc3)[C@H](C)C2)CC1 [Example 6],6 to 10 nM
12,C[C@@H]1CN(C2CCN(C(=O)c3sccc3OCC3CC3)CC2)CCN1[C@@H](C)c1ccc(-c2cc(Cl)cc(Cl)c2)cc1 [Example 12],6 to 10 nM

# Next, values leading:
row,Ki,SMILES
1,6 to 10 nM,C[C@@H]1CN(C2(C)CCN(C(=O)c3sccc3OCC3CC3)CC2)CCN1[C@@H](C)c1ccc(-c2ccncc2)cc1 [Example 15]
2,6 to 10 nM,CCOc1ccsc1C(=O)N1CCC(N2CCN([C@@H](C)c3ccc(CCc4ccc(C(F)(F)F)cc4)cc3)[C@H](C)C2)CC1 [Example 13]
3,6 to 10 nM,CCCOc1ccsc1C(=O)N1CCC(N2CCN([C@@H](C)c3ccc(CCc4ccc(C(F)(F)F)cc4)cc3)[C@H](C)C2)CC1 [Example 14]
4,6 to 10 nM,C[C@@H]1CN(C2(C)CCN(C(=O)c3sccc3OCC3CC3)CC2)CCN1[C@@H](C)c1ccc(-c2cc(Cl)cc(Cl)c2)cc1 [Example 5]
5,6 to 10 nM,CCCOc1ccsc1C(=O)N1CCC(C)(N2CCN([C@@H](C)c3ccc(-c4cc(Cl)cc(Cl)c4)cc3)[C@H](C)C2)CC1 [Example 3]
6,6 to 10 nM,CCOc1ccsc1C(=O)N1CCC(N2CCN([C@@H](C)c3ccc(-c4cc(Cl)cc(Cl)c4)cc3)[C@H](C)C2)CC1C (stereo partly drawn) [Example 16]
7,6 to 10 nM,CCCOc1cscc1C(=O)N1CCC(N2CCN([C@@H](C)c3ccc(-c4cc(Cl)cc(Cl)c4)cc3)[C@H](C)C2)CC1 [Example 19]

# Same assay, conditions: unit inferred, read-out: Ki values
row,Ki,SMILES
1,6 nM,CCOc1ccsc1C(=O)N1CCC(N2CCN([C@@H](C)c3ccc(-c4cc(Cl)cc(Cl)c4)cc3)[C@H](C)C2)CC1C (stereo partly drawn) [Example 16]
2,6 nM,CCCOc1cscc1C(=O)N1CCC(N2CCN([C@@H](C)c3ccc(-c4cc(Cl)cc(Cl)c4)cc3)[C@H](C)C2)CC1 [Example 20]
